Measured values published in US5444174A, “16-membered macrolide derivative having sustained antibacterial activity in plasma, synthesis intermediate thereof and process for producing the same” (Meiji Seika Kaisha, Ltd., priority 1992, dated 1995).
Values after ≈ are worked out from the molar mass of the structure shown.

Experiments:
[1] = Storage stability of synthesis intermediates; format: physicochemical; details: room temperature storage
[2] = test system: B. catarrhalis W-0500; test: Antibacterial activity (MIC), agar plate dilution method; format: cell-based; details: Moraxella catarrhalis, W0500; 37° C., 20 hours; blood agar seed culture; B. catarrhalis W-0500; read-out: Antibacterial activity (MIC)
Description: (§1) Antibacterial activities of the compounds of formula (I) are shown in Table 1 in terms of minimum inhibitory concentration (MIC).
(§2) Minimum inhibitory concentration was determined by the agar plate dilution method. Test strains were subjected to seed culture using Sensitivity test broth (STB, Nissui Pharmaceutical) except that the strains belonging to the genus Streptococcus, Branhamella and Haemophilus were cultured on blood agar plate. A 5 μl portion of cell suspension of the test strains having about 10^6 CFU/ml was inoculated into Sensitivity disk agar (SDA, Nissui Pharmaceutical) supplemented with 5% horse blood and incubated at 37° C. for 20 hours. Then, MIC was measured.

[3] = test system: B. catarrhalis W-0506; test: as above; format: cell-based; details: Moraxella catarrhalis, W0506; 37° C., 20 hours; blood agar seed culture; B. catarrhalis W-0506; read-out: Antibacterial activity (MIC)
Description: as §1, §2

[4] = test system: E. coli NIHJ JC-2; test: as above; format: cell-based; details: Escherichia coli, NIHJJC2, 37° C., 20 hours
Description: as §1, §2

[5] = test system: Ent. faecalis W-73; test: as above; format: cell-based; details: Enterococcus faecalis, W73, 37° C., 20 hours
Description: as §1, §2

[6] = test system: H. influenza 9334; test: as above; format: cell-based; details: 37° C., 20 hours, blood agar seed culture
Description: as §1, §2

[7] = test system: K. pneumoniae PC1602; test: as above; format: cell-based; details: Klebsiella pneumoniae, 37° C., 20 hours
Description: as §1, §2

[8] = test system: M. luteus ATCC 9341; test: as above; format: cell-based; details: Micrococcus luteus, ATCC9341, 37° C., 20 hours
Description: as §1, §2

[9] = test system: S. Pyogenes Cook; test: as above; format: cell-based; details: Streptococcus pyogenes, 37° C., 20 hours, blood agar seed culture
Description: as §1, §2

[10] = test system: S. pneumoniae IP692; test: as above; format: cell-based; details: Streptococcus pneumoniae, 37° C., 20 hours, blood agar seed culture
Description: as §1, §2

[11] = test system: S. pneumoniae Type 1; test: as above; format: cell-based; details: Streptococcus pneumoniae, TYPE1, 37° C., 20 hours, blood agar seed culture
Description: as §1, §2

[12] = test system: Sta. aureus 209P JC-1; test: as above; format: cell-based; details: Staphylococcus aureus, 37° C., 20 hours
Description: as §1, §2

[13] = test system: Sta. aureus M126; test: as above; format: cell-based; details: Staphylococcus aureus, 37° C., 20 hours
Description: as §1, §2

[14] = test system: Sta. aureus M133; test: as above; format: cell-based; details: Staphylococcus aureus; 37° C., 20 hours; Sta. aureus M133; read-out: Antibacterial activity (MIC)
Description: as §1, §2

[15] = test system: Sta. aureus MS15009/pMS98; test: as above; format: cell-based; details: Staphylococcus aureus, MS15009/PMS98, 20 h, read-out: Antibacterial activity (MIC)
Description: as §1, §2

[16] = test system: Sta. aureus MS15009/pMS99; test: as above; format: cell-based; details: Staphylococcus aureus, MS15009/PMS99, 20 h, read-out: Antibacterial activity (MIC)
Description: as §1, §2

[17] = test system: Sta. aureus MS15026; test: as above; format: cell-based; details: Staphylococcus aureus, 37° C., 20 hours
Description: as §1, §2

[18] = test system: Sta. aureus MS15027; test: as above; format: cell-based; details: Staphylococcus aureus; 37° C., 20 hours; Sta. aureus MS15027; read-out: Antibacterial activity (MIC)
Description: as §1, §2

[19] = test system: Sta. epidermidis ATCC 14990; test: as above; format: cell-based; details: Staphylococcus epidermidis, ATCC14990; 37° C., 20 hours; Sta. epidermidis ATCC 14990; read-out: Antibacterial activity (MIC)
Description: as §1, §2

[20] = test system: gram-positive bacteria; test: Antibacterial activities against gram-positive bacteria (summary of Table 1); format: cell-based; details: in words
Description: as §1, §2

[21] = test system: M. luteus; format: in vitro ADME
Description: Each test compound and 50 μl of a methanol solution (10,000 γ) were added to 950 μl of thawed rat plasma and the resulting mixture was incubated at 37° C. A 20 μl portion of the mixture was sampled after 0, 1, 3, 6 and 24 hours and added to 980 μl of 0.05M phosphate buffer (pH 7.2). A 20 μl portion of the sample solution was used to measure antibacterial activity against M. luteus. Separately, the calibration curve was prepared by using a methanol solution containing each test compound. The starting activity of each compound in the plasma was referred to as 100%.
Changes in the antibacterial activities of miokamycin and the compound (14) against M. luteus were measured in the same manner as described above except for using fresh rat plasma in place of thawed rat plasma. The fresh rat plasma was prepared by collecting 50 ml of blood from five rats, treating the blood with heparin and subjecting it to centrifugation to obtain plasma.

[22] = cited from earlier work
[23] = vs midecamycin; cited from earlier work
[24] = cited from earlier work; remark: listed apart in the source
[25] = human compared with rat; cited from earlier work

| Structure (SMILES) | MIC [2] [µg/mL] | MIC [3] [µg/mL] | MIC [4] [µg/mL] | MIC [5] [µg/mL] | MIC [6] [µg/mL] | MIC [7] [µg/mL] | MIC [8] [µg/mL] | MIC [9] [µg/mL] | MIC [10] [µg/mL] | MIC [11] [µg/mL] | MIC [12] [µg/mL] | MIC [13] [µg/mL] | MIC [14] [µg/mL] | MIC [15] [µg/mL] | MIC [16] [µg/mL] | MIC [17] [µg/mL] | MIC [18] [µg/mL] | MIC [19] [µg/mL] | other results |
| --- | --- | --- | --- | --- | --- | --- | --- | --- | --- | --- | --- | --- | --- | --- | --- | --- | --- | --- | --- |
| CCC(=O)O[C@@H]1CC(=O)O[C@H](C)C/C=C/C=C/C(=O)[C@H](C)C[C@H](CC2OCCO2)[C@H](O[C@@H]2O[C@H](C)[C@@H](O)[C@H]([N+](C)(C)[O-])[C@H]2O)[C@H]1OC [Compound (2)] |  |  |  |  |  |  |  |  |  |  |  |  |  |  |  |  |  |  | stability [1]: so stable as to be stored at room temperature for a prolonged period of time |
| CCC(=O)O[C@@H]1CC(=O)O[C@H](C)C/C=C/C=C/C(=O)[C@H](C)C[C@H](CC=O)[C@H](O[C@@H]2O[C@H](C)[C@@H](O[C@H]3C[C@@](C)(OC)[C@@H](OCCC(C)C)[C@H](C)O3)[C@H](N(C)C)[C@H]2O)[C@H]1OC [Compound (14)] | 0.78 (≈ 0.929 µM) | 0.78 (≈ 0.929 µM) | > 100 | 1.56 (≈ 1.86 µM) | 6.25 (≈ 7.44 µM) | > 100 | 0.1 (≈ 0.119 µM) | 0.05 (≈ 0.0595 µM) | 0.1 (≈ 0.119 µM) | 0.2 (≈ 0.238 µM) | 0.2 (≈ 0.238 µM) | > 100 | 0.78 (≈ 0.929 µM) | 0.78 (≈ 0.929 µM) | > 100 | > 100 | 0.78 (≈ 0.929 µM) | 0.78 (≈ 0.929 µM) | antibacterial activities against gram-positive bacteria [20]: have antibacterial activities against gram-positive bacteria; antibacterial activities compared with miokamycin ([20]; vs miokamycin): excellent antibacterial activities exceeding that of miokamycin; antibacterial activity in rat plasma over time [21]: antibacterial activity sustaining for a prolonged period of time in rat plasma; degree of the decrease in the antibacterial activity in plasma [21]: clearly lower degree of the decrease in the antibacterial activity in plasma, compared with miokamycin; metabolism at the mycarose moiety in plasma [21]: hardly metabolized at the mycarose moiety |
| CCC(=O)O[C@@H]1CC(=O)O[C@H](C)C/C=C/C=C/[C@H](OC(C)=O)[C@H](C)C[C@H](CC=O)[C@H](O[C@@H]2O[C@H](C)[C@@H](O[C@H]3C[C@@](C)(OC(C)=O)[C@@H](OC(=O)CC)[C@H](C)O3)[C@H](N(C)C)[C@H]2O)[C@H]1OC [Miokamycin, miokamycin, reference compound] | 1.56 (≈ 1.74 µM) | 1.56 (≈ 1.74 µM) | > 100 | 1.56 (≈ 1.74 µM) | 6.25 (≈ 6.96 µM) | > 100 | 0.1 (≈ 0.111 µM) | 0.1 (≈ 0.111 µM) | 0.2 (≈ 0.223 µM) | 0.2 (≈ 0.223 µM) | 0.2 (≈ 0.223 µM) | > 100 | 0.78 (≈ 0.869 µM) | 0.78 (≈ 0.869 µM) | > 100 | > 100 | 0.78 (≈ 0.869 µM) | 0.78 (≈ 0.869 µM) | antibacterial activity after metabolism in vivo [22]: the antibacterial activity of this antibiotic is reduced; elimination of acyl group at the mycarose moiety in vivo [22]: eliminated in vivo; infection-protective action in vivo [23]: superior to midecamycin; recovery ratio in urine ([24]; vs midecamycin): superior to midecamycin; dynamics in vivo ([24]; vs natural compounds): superior in the dynamics in vivo to natural compounds; metabolic pattern of the deacylation of the mycarose moiety in human [25]: almost similar to that in rat |
